Earlier results as cited in patent publication US20150164812A1, “Porous Tablets As Carriers For Liquid Formulations” (Veloxis Pharmaceuticals A/S, priority 2004, published 2015).
Structures can show the parent of a compound that is named as a salt. Where two headings read alike, the source gives them in different places.

What was measured:
[1] = not given; remark: listed apart in the source
[2] = Table 1 Poorly-Soluble Drug Candidates
[3] = Table 2 Poorly-Soluble Drugs with Low Bioavailability

SMILES | Solubility In Water [2] | Solubility In Water [3] | further results
CC(C)(C)NC(=O)[C@H]1CC[C@H]2[C@@H]3CC[C@H]4NC(=O)C=C[C@]4(C)[C@H]3CC[C@]12C [Finasteride] | Insoluble | – | –
CO[C@]12C[C@@H](COC(=O)c3cncc(Br)c3)CN(C)[C@@H]1Cc1cn(C)c3cccc2c13 [Nicergoline] | Insoluble | – | –
O=[N+]([O-])O[C@H]1CO[C@H]2[C@@H]1OC[C@H]2O[N+](=O)[O-] [Isosorbide dinitrate] | Sparingly | Sparingly soluble | –
NC(N)=Nc1nc(CSCCC(N)=NS(N)(=O)=O)cs1 [Famotidine] | Slightly | Slightly soluble | –
CCCCCc1cc(O)c2c(c1)OC(C)(C)[C@@H]1CCC(C)=C[C@@H]21 [Dronabinol] | – | Insoluble | –
Cc1cccc(Nc2ccccc2C(=O)O)c1C [Mefenamic acid] | Slightly | – | –
CN1CCN(C2=Nc3cc(Cl)ccc3Nc3ccccc32)CC1 [Clozapine] | Slightly | – | –
CCOC(=O)C1=C(C)NC(C)=C(C(=O)OC)C1c1cccc(Cl)c1Cl (stereo not drawn) [Felodipine] | Insoluble | Insoluble | –
CCc1cccc2c3c([nH]c12)C(CC)(CC(=O)O)OCC3 (stereo not drawn) [Etodolac] | Insoluble | – | –
CC1=C(/C=C/C(C)=C/C=C/C(C)=C\C(=O)O)C(C)(C)CCC1 [Isotretinoin] | Insoluble | – | –
CC(=O)OC[C@H]1O[C@@H]([S-])[C@H](OC(C)=O)[C@@H](OC(C)=O)[C@@H]1OC(C)=O.CCP(CC)CC.[Au+] [Auranofin] | – | Slightly soluble | Bioavailability ([1]; in vivo): Low (15-25%)
CN[C@H]1CC[C@@H](c2ccc(Cl)c(Cl)c2)c2ccccc21 [Sertraline] | Slightly | Slightly soluble | –
CN1C(C(=O)Nc2ccccn2)=C(O)c2ccccc2S1(=O)=O [Piroxicam] | Sparingly | – | –
CC(=O)S[C@@H]1CC2=CC(=O)CC[C@]2(C)[C@H]2CC[C@@]3(C)[C@@H](CC[C@@]34CCC(=O)O4)[C@H]12 [Spironolactone] | – | Insoluble | –
CCOC(=O)[C@H](CCc1ccccc1)N[C@@H](C)C(=O)N1[C@H](C(=O)O)C[C@@H]2CCC[C@@H]21 [Ramipril] | Insoluble | – | –
CC(C)(C)c1ccc(C(O)CCCN2CCC(C(O)(c3ccccc3)c3ccccc3)CC2)cc1 (stereo not drawn) [Terfenadine] | Slightly | – | –
OC(CCN1CCCCC1)(c1ccccc1)C1CC2C=CC1C2 (stereo not drawn) [Biperiden] | – | Sparingly soluble | –
CC(=O)N1CCN(c2ccc(OCC3COC(Cn4ccnc4)(c4ccc(Cl)cc4Cl)O3)cc2)CC1 (stereo not drawn) [Ketoconazole] | Insoluble | – | –
CC(=O)O[C@H]1C(=O)[C@@]2(C)[C@H]([C@H](OC(=O)c3ccccc3)[C@]3(O)C[C@H](OC(=O)[C@H](O)[C@@H](NC(=O)c4ccccc4)c4ccccc4)C(C)=C1C3(C)C)[C@]1(OC(C)=O)CO[C@@H]1C[C@@H]2O [Paclitaxel] | Insoluble | – | –
NC(=O)N1c2ccccc2C=Cc2ccccc21 [Carbamazepine] | Insoluble | – | –
CC(C)Cc1ccc(C(C)C(=O)O)cc1 (stereo not drawn) [Ibuprofen] | Insoluble | – | –
CC(C(=O)O)c1ccc(-c2ccccc2)c(F)c1 (stereo not drawn) [Flurbiprofen] | Slightly | – | –
O=C1NC(=O)C(c2ccccc2)(c2ccccc2)N1 [Phenytoin] | Insoluble | – | –
COC(=O)C1=C(C)NC(C)=C(C(=O)OC(C)C)C1c1cccc2nonc12 (stereo not drawn) [Isradipine] | Insoluble | Insoluble | –
C[C@@](Cc1ccc(O)c(O)c1)(NN)C(=O)O [Carbidopa] | Slightly | – | –

SMILES | Solubility In Water [2] | Solubility In Water [3] | further results
CC[C@H](C)C(=O)O[C@H]1C[C@@H](C)C=C2C=C[C@H](C)[C@H](CC[C@@H]3C[C@@H](O)CC(=O)O3)[C@H]21 [Lovastatin] | Insoluble | Insoluble | –
CN1CCC[C@@H]1CCO[C@](C)(c1ccccc1)c1ccc(Cl)cc1 [Clemastine fumarate] | – | Slightly soluble | –
CO/N=C(\C(=O)N[C@@H]1C(=O)N2C(C(=O)O)=C(COC(C)=O)CS[C@H]12)c1csc(N)n1 [Cefotaxime] | Sparingly | – | –
Cc1ccc(-c2nc3ccc(C)cn3c2CC(=O)N(C)C)cc1 [Zolpidem] | Sparingly | – | –
COc1ccc2[nH]c([S+]([O-])Cc3ncc(C)c(OC)c3C)nc2c1 (stereo not drawn) [Omeprazole] | Slightly | – | –
COCCCC/C(=N\OCCN)c1ccc(C(F)(F)F)cc1 [Fluvoxamine] | Sparingly | – | –
CC(CCc1ccc(O)cc1)NCCc1ccc(O)c(O)c1 (stereo not drawn) [Dobutamine] | Sparingly | – | –
Cc1nnc2n1-c1ccc(Cl)cc1C(c1ccccc1)=NC2 [Alprazolam] | Insoluble | – | –
COc1cc2nc(N3CCN(C(=O)C4COc5ccccc5O4)CC3)nc(N)c2cc1OC (stereo not drawn) [Doxazosin] | Slightly | – | –
C[C@]12CC[C@H]3[C@@H](CCC4=CC(=O)CC[C@@]43C)[C@@H]1CC[C@@H]2O [Testosterone] | – | Insoluble | Bioavailability ([1]; in words): Low
COc1cc([C@@H]2c3cc4c(cc3[C@@H](O[C@@H]3O[C@@H]5CO[C@@H](C)O[C@H]5[C@H](O)[C@H]3O)[C@H]3COC(=O)[C@H]23)OCO4)cc(OC)c1O [Etoposide] | Very Slightly | – | –
OCCN1CCN(CCCN2c3ccccc3Sc3ccc(Cl)cc32)CC1 [Perphenazine] | – | – | Bioavailability ([1]; in words): Low
Cc1c(OCC(F)(F)F)ccnc1C[S+]([O-])c1nc2ccccc2[nH]1 (stereo not drawn) [Lansoprazole] | Insoluble | – | –
C[C@@H]1C[C@H]2[C@@H]3CCC4=CC(=O)C=C[C@]4(C)[C@@]3(Cl)[C@@H](O)C[C@]2(C)[C@@]1(O)C(=O)CCl [Mometasone] | Insoluble | – | –
COc1ccc(CCN2CCC(Nc3nc4ccccc4n3Cc3ccc(F)cc3)CC2)cc1 [Astemizole] | Insoluble | Insoluble | Bioavailability ([1]; in words): Low-moderate
CCOC(=O)[C@H](CCc1ccccc1)N[C@@H](C)C(=O)N1CCC[C@H]1C(=O)O [Enalapril] | Sparingly | – | –
COc1ccc2cc(CCC(C)=O)ccc2c1 [Nabumetone] | Insoluble | Insoluble | –
CCOC(=O)[C@H](CCc1ccccc1)N[C@@H](C)C(=O)N1Cc2ccccc2C[C@H]1C(=O)O [Quinapril] | Insoluble | – | –
C#C[C@]1(O)CC[C@H]2[C@@H]3CCC4=Cc5oncc5C[C@]4(C)[C@H]3CC[C@@]21C [Danazol] | – | – | Bioavailability ([1]; in words): Low
C=CCC1(CC(C)C)C(=O)NC(=O)NC1=O [Butalbital] | Insoluble | – | –
OCCN1CCN(CCCN2c3ccccc3Sc3ccc(C(F)(F)F)cc32)CC1 [Fluphenazine] | – | Insoluble | –
CC1CC(OC(=O)C(O)c2ccccc2)CC(C)(C)C1 (stereo not drawn) [Cyclandelate] | – | Insoluble | Bioavailability ([1]; in words): Low
CN1CCCC(n2nc(Cc3ccc(Cl)cc3)c3ccccc3c2=O)CC1 (stereo not drawn) [Azelastine] | Insoluble | – | –
OC(Cn1cncn1)(Cn1cncn1)c1ccc(F)cc1F [Fluconazole] | Slightly | – | –
OCCN(CCO)c1nc(N2CCCCC2)c2nc(N(CCO)CCO)nc(N3CCCCC3)c2n1 [Dipyridamole] | Slightly | – | –
